According to patent publication US6638953B2, “Indole derivatives as 5-HT receptor antagonist” (SmithKline Beecham p.l.c., priority 1995, dated 2003):
Where a name gives a salt, the structure may show the parent alone.

Row | Compound | melting point
1 | Cc1ncccc1Oc1ccc(NC(=O)N2CCc3cc(Br)c(C(F)(F)F)cc32)cn1 | 211 to 213 °C
2 | CSc1cc2c(cc1C(F)(F)F)N(C(=O)Nc1cc(F)cc(-c3cccnc3)c1)CC2 (as salt: hydrochloride) [Example 25, 1-(3-Fluoro-5-(pyrid-3-yl)phenylcarbamoyl)5-thiomethyl-6-trifluoromethyl-indoline Hydrochloride] | 202 to 203 °C
3 | COc1cc2c(cc1C(F)(F)F)N(C(=O)Nc1ccc(-c3cccnc3)cc1)CC2 [Example 4, 1-[(3-Pyridyl)-4-phenyl Carbamoyl]-5-methoxy-6-trifluoromethylindoline] | > 230 °C
4 | COc1cc2c(cc1C(F)(F)F)N(C(=O)Nc1ccc(-c3ccncc3)cc1)CC2 [Example 5, 1-[(4-Pyridyl)-4-phenyl Carbamoyl]-5-methoxy-6-trifluoromethyl Indoline] | > 210 °C
5 | COc1cc2c(cc1C(F)(F)F)N(C(=O)Nc1cc(-c3cccnc3)ccc1F)CC2 [Example 9, 1-[2-Fluoro-5-(3-pyridyl) Phenyl Carbamoyl]-5-methoxy-6-trifluoromethyl Indoline] | 233 °C (dec.)
6 | CSc1cc2c(cc1C(F)(F)F)N(C(=O)Nc1cncc(-c3ccccc3)c1)CC2 [Example 11, 1-(5-Phenyl Pyrid-3-yl Carbamoyl)-5-methylthio-6-trifluoromethyl Indoline] | 208 to 214 °C
7 | COc1cc2c(cc1C(F)(F)F)N(C(=O)Nc1cncc(-c3cccnc3)c1)CC2 [Example 12, 1-[5-(3-Pyridyl)-pyrid-3-yl Carbamoyl]-5-methoxy-6-trifluoromethyl Indoline] | 113 to 114 °C
8 | COc1cc2c(cc1C(F)(F)F)N(C(=O)Nc1cncc(-c3ccc(C(F)(F)F)cc3)c1)CC2 [Example 13, 1-[5-(4-Trifluoromethylphenyl)-pyrid-3-yl Carbamoyl]-5-methoxy-6-trifluoromethyl Indoline] | 199 to 202 °C
9 | COc1cc2c(cc1C(F)(F)F)N(C(=O)Nc1cncc(-c3ccc(C)cc3)c1)CC2 [Example 14, 1-[5-(4-Methylphenyl)-pyrid-3-yl Carbamoyl]-5-methoxy-6-trifluoromethyl Indoline] | 190 to 191 °C
10 | COc1cc2c(cc1C(F)(F)F)N(C(=O)Nc1cncc(-c3cccs3)c1)CC2 [Example 15, 1-[5-(2-Thienyl)-pyrid-3-yl Carbamoyl]-5-methoxy-6-trifluoromethyl Indoline] | 193 to 208 °C
11 | COc1cc2c(cc1C(F)(F)F)N(C(=O)Nc1cncc(-c3ccsc3)c1)CC2 [Example 16, 1-[5-(3-Thienyl)-pyrid-3-yl Carbamoyl]-5-methoxy-6-trifluoromethyl Indoline] | 165 to 167 °C
12 | COc1cc2c(cc1C(F)(F)F)N(C(=O)Nc1cncc(-c3ccc[nH]3)c1)CC2 [Example 17, 1-[5-(2-Pyrrolyl)-pyrid-3-yl Carbamoyl]-5-methoxy-6-trifluoromethyl Indoline] | 218 to 219 °C
13 | COc1cc2c(cc1C(F)(F)F)N(C(=O)Nc1cncc(-c3ccncc3)c1)CC2 [Example 18, 1-[5-(4-Pyridyl)-pyrid-3-yl Carbamoyl]-5-methoxy-6-trifluoromethyl Indoline] | 230 to 234 °C
14 | COc1cc2c(cc1C(F)(F)F)N(C(=O)Nc1cncc(-c3c(F)cccc3F)c1)CC2 [Example 22, 1-(5-(2,6-Difluorophenyl)-3-pyridylcarbamoyl)-5-methoxy-6-trifluoromethylindoline] | 217 to 219 °C
15 | Cc1cc2c(cc1Cl)N(C(=O)Nc1ccc(C)c(-c3cccnc3)c1)CC2 [Example 23, 6-Chloro-5-methyl-1-(4-methyl-3-(pyrid-3-yl)-phenylcarbamoyl) Indoline] | 202 to 203 °C
16 | COc1cc2c(cc1C(F)(F)F)N(C(=O)Nc1cccc(-c3noc(C)n3)c1)CC2 [Example 27, 5-Methoxy-1-(5-methyl-(1,2-4-oxadiazol-3-yl)-phenylcarbamoyl)-6-trifluoromethyl Indoline] | 203 to 204 °C
17 | COc1cc2c(cc1C(F)(F)F)N(C(=O)Nc1cc(Br)c(C)c(-c3cccnc3)c1)CC2 [Example 33, 1-[3-Bromo-4-methyl-5-(3-pyridyl)phenylcarbamoyl]-5-methoxy-6-trifluoromethylindoline] | 216 to 218 °C
18 | COc1cc2c(cc1C(F)(F)F)N(C(=O)Nc1cccc(-c3cncc4ccccc34)c1)CC2 [Example 34, 1-[3-(4-Isoquinolyl)phenylcarbamoyl]-5-methoxy-6-trifluoromethyl Indoline] | 211 to 215 °C
19 | COc1cc2c(cc1C(F)(F)F)N(C(=O)Nc1ccc(-c3cccnc3)nc1)CC2 [Example 36, 1-[6-(3-Pyridyl)-pyrid-3-ylcarbamoyl]-5-methoxy-6-trifluoromethylindoline] | > 270 °C
20 | COc1cc2c(cc1C(F)(F)F)N(C(=O)Nc1ccc3c(ccn3-c3ccncc3)c1)CC2 [Example 59, 1-(1-(4-Pyridyl)-5-indolylcarbamoyl)-5-methoxy-6-trifluoromethylindoline] | 206 to 211 °C
21 | COc1cc2c(cc1C(F)(F)F)N(C(=O)Nc1ccc(CSc3ccncc3)cc1)CC2 [Example 60, 5-Methoxy-6-trifluoromethyl-1-[4-(pyridin-4-ylthiomethyl)phenyl Carbamoyl]indoline] | 174 to 175 °C
22 | COc1cc2c(cc1C(F)(F)F)N(C(=O)Nc1ccc(SCc3ccncc3)cc1)CC2 [Example 62, 5-Methoxy-6-trifluoromethyl-1-[4-(pyridin-4-ylmethylthio)phenyl Carbamoyl]indoline] | 160 to 163 °C
23 | COc1cc2c(cc1C(F)(F)F)N(C(=O)Nc1ccnc(Oc3cccnc3)c1)CC2 [Example 64] | 223 to 225 °C
24 | CSc1cc2c(cc1C(F)(F)F)N(C(=O)Nc1ccc(Oc3ccc(C)nc3)nc1)CC2 [Example 66, 5-Methylthio-6-trifluoromethyl-1-[6-(6-methylpyridin-3-yloxy)pyridin-3-ylcarbamoyl]indoline] | 206 to 208 °C
25 | COc1cc2c(cc1C(F)(F)F)N(C(=O)Nc1ccc(Sc3cccnc3)nc1)CC2 [Example 67, 5-Methoxy-6-trifluoromethyl-1-[6-(pyridin-3-ylthio)pyridin-3-ylcarbamoyl]indoline] | 208 to 210 °C

Row | Compound | melting point
26 | CSc1cc2c(cc1C(F)(F)F)N(C(=O)Nc1ccc(C(=O)NCc3cccnc3)cc1)CC2 [Example 68, 5-Methylthio-6-trifluoromethyl-1-[4-(pyrid-3-ylmethyl)amido Phenyl Carbamoyl]indoline] | > 250 °C
27 | COc1cc2c(cc1C(F)(F)F)N(C(=O)Nc1ccc3c(ccn3Cc3cccnc3)c1)CC2 [Example 71, 1-(1-(3-Pyridylmethyl)-5-indolylcarbamoyl)-5-methoxy-6-trifluoromethylindoline] | 243 to 246 °C
28 | COc1cc2c(cc1C(F)(F)F)N(C(=O)Nc1ccc3c(ccn3Cc3ccncc3)c1)CC2 [Example 72, 1-(1-(4-Pyridylmethyl)-5-indolylcarbamoyl)-5-methoxy-6-trifluoromethylindoline] | 215 to 218 °C
29 | COc1cc2c(cc1C(F)(F)F)N(C(=O)Nc1ccc3c(ccn3-c3cccnc3)c1)CC2 [Example 73, 1-(1-(3-Pyridyl)-5-indolylcarbamoyl)-5-methoxy-6-trifluoromethyl Indoline] | 202 to 204 °C
30 | COc1cc2c(cc1C(F)(F)F)N(C(=O)Nc1ccc(Oc3cnccc3C)nc1)CC2 [Example 82, 5-Methoxy-6-trifluoromethyl-1-[6-(4-methylpyridin-3-yloxy)pyridin-3-ylcarbamoyl]indoline] | 188 to 191 °C
31 | COc1cc2c(cc1C(F)(F)F)N(C(=O)Nc1cccc(-c3cccnc3)c1)CC2 [Example 83] | 192 to 193 °C
32 | COc1cc2c(cc1C(F)(F)F)N(C(=O)Nc1cccc(-c3cccnc3)c1OC)CC2 [Example 84] | 196 to 197 °C
33 | COc1cc2c(cc1C(F)(F)F)N(C(=O)Nc1cccc(-c3cccnc3)c1Cl)CC2 [Example 85] | 214 to 216 °C
34 | COc1cc2c(cc1C(F)(F)F)N(C(=O)Nc1cccc(-c3cnc4ccccc4c3)c1)CC2 [Example 86] | 240 °C (dec.)
35 | COc1cc2c(cc1C(F)(F)F)N(C(=O)Nc1cncc(-c3ccc(F)cc3)c1)CC2 [Example 87] | > 200 °C
36 | COc1cc2c(cc1C(F)(F)F)N(C(=O)Nc1cncc(-c3cc(F)cc(F)c3)c1)CC2 [Example 88] | 226 to 229 °C
37 | COc1cc2c(cc1C(F)(F)F)N(C(=O)Nc1cncc(-c3ccc(Cl)cc3)c1)CC2 [Example 89] | 198 to 199 °C
38 | COc1cc2c(cc1C(F)(F)F)N(C(=O)Nc1cncc(-c3ccccc3C)c1)CC2 [Example 90] | 103 to 105 °C
39 | COc1cc2c(cc1C(F)(F)F)N(C(=O)Nc1cncc(-c3ccccc3C=O)c1)CC2 [Example 91] | 114 to 116 °C
40 | COc1cc2c(cc1C(F)(F)F)N(C(=O)Nc1cncc(-c3ccccc3CO)c1)CC2 [Example 92] | 190 to 192 °C
41 | COc1cc2c(cc1C(F)(F)F)N(C(=O)Nc1cncc(-c3ccc(F)c(Cl)c3)c1)CC2 [Example 93] | 113 to 115 °C
42 | COc1cc2c(cc1C(F)(F)F)N(C(=O)Nc1ccc(-c3ccccc3)nc1)CC2 [Example 94] | 204 to 207 °C
43 | COc1cc2c(cc1C(F)(F)F)N(C(=O)Nc1ccc(-c3cccnc3)cn1)CC2 [Example 95] | > 225 °C
44 | COc1cc2c(cc1C(F)(F)F)N(C(=O)Nc1ccc(-n3cccn3)nc1)CC2 [Example 96] | > 225 °C
45 | COc1cc2c(cc1C(F)(F)F)N(C(=O)Nc1cccc(-c3ccc(N(C)C)cc3)c1)CC2 [Example 97] | 213 to 215 °C
46 | COc1cc2c(cc1C(F)(F)F)N(C(=O)Nc1cccc(-c3ccc(CN(C)C)cc3)c1)CC2 [Example 98] | 209 to 211 °C
47 | COc1cc2c(cc1C(F)(F)F)N(C(=O)Nc1cccc(-c3cccc(CN(C)C)c3)c1)CC2 [Example 99] | 185 to 187 °C
48 | COc1cc2c(cc1C(F)(F)F)N(C(=O)Nc1cccc(-c3noc(CN(C)C)n3)c1)CC2 [Example 100] | 154 to 155 °C
49 | COc1cc2c(cc1C(F)(F)F)N(C(=O)Nc1cccc(-c3ccc[nH]3)c1)CC2 [Example 102] | > 240 °C
